The subject of data set [1] is MPTP-treated common marmoset that developed motor complication. Nature of the data set: Test Example 4: combination with L-DOPA in MPTP-treated common marmoset that developed motor complication. It is filed as in vivo. The note with it: for duration (on-time) of anti-parkinsonian activities of L-DOPA / minimum disability score: gavage. As to the method: 10 mg/kg of L-DOPA (containing 2.5 mg/kg of benserazide hydrochloride) was administered by gavage to common marmoset that developed chronic parkinsonian symptoms by treatment with MPTP by the method described in Test Example 3 (MPTP-treated marmoset) twice a day at about 6 hr intervals. L-DOPA was repeatedly administered for more than 3 weeks to induction of motor complication (dyskinesia symptom, wearing-off phenomenon, on-off fluctuation and the like) in MPTP-treated marmoset in addition to parkinsonian symptoms, and the marmoset was used for the test. […] The locomotor activity was automatically measured using a computer by a measuring apparatus with a photocell. […] The subject animal was placed in an observation cage (with locomotor activity measuring apparatus) one day before the test compound administration for preconditioning to the environment. The symptoms of Parkinson's disease were continuously monitored through one-way mirror and disability score was scored each 10 min for 6 hr.

For data set [2], the system named is MPTP-treated common marmoset. Put plainly: Test Example 3: combination with L-DOPA in MPTP-treated common marmoset, motor disability score. It is filed as in vivo. An excerpt:
Parkinson's disease is a disease based on the progressive degeneration and loss of dopaminergic neuron in substantia nigra-striatum. In primates, a treatment with MPTP, which is a dopamine neurotoxin, causes selective degeneration and loss of dopaminergic neuron in substantia nigra-striatum and induces symptoms of akinesia, muscle rigidity and the like. The primates treated with MPTP are known as the model of Parkinson's disease [Proceedings of the National Academy of Science USA, vol. 80, p. 4546 (1983)]. In addition, common marmoset belongs to Haplorhini and is known to show the symptoms of Parkinson's disease by MPTP, like other Haplorhini [Neuroscience Letter, vol. 57, p. 37 (1985)]. […] The parkinsonian symptoms were judged using the index described in a previous report [Annales of Neurology, vol. 43, p. 507 (1998)]. All compounds were used as a suspension in 0.5% MC400, 10% aqueous sucrose solution. The subject animal was placed in an observation cage (with locomotor activity measuring apparatus) one day before the test compound administration for preconditioning to the environment. The symptoms of Parkinson's disease were continuously monitored through one-way mirror and disability score was scored each 10 min for 6 hr.
The locomotor activity was automatically measured using a computer by a measuring apparatus with a photocell.

The target of data set [3] is T1, human adenosine A1 receptor (Homo sapiens, UniProt P30542).
T1 construct: host or cells: CHO cells (membranes)
T1 sequence (P30542 1-326): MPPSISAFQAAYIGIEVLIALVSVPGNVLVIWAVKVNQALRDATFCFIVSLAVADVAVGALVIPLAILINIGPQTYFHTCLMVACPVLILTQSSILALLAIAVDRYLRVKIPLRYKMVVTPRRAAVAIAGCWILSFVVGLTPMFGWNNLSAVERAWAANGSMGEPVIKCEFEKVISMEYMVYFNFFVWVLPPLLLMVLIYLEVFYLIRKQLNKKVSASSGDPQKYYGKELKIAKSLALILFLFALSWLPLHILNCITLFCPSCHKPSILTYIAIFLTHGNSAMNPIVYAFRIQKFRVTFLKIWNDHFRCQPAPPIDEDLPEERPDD
Put plainly: Adenosine A1 receptor binding test (3H-DPCPX binding). The conditions noted are these: read-out: Inhibitory rate for human adenosine A1 receptor binding (3H-DPCPX binding). An excerpt:
Specifically, for example, human A1 receptor-expressing CHO cell membranes are used, and, as the labeled compound, for example, tritium-labeled DPCPX (1,3-dipropyl-8-cyclopentylxanthine) is used. The amount of non-specific binding can be determined by measuring the ^3H-DPCPX bound radioactivity in the presence of, for example, 100 μmol/L of R(−)-PIA((−)-N^6-2-phenylisopropyl adenosine).

Data set [4] deals with MPTP-treated common marmoset that developed motor complication. Put plainly: Test Example 5: influence on dyskinesia in MPTP-treated common marmoset that developed motor complication. It is filed as in vivo. The conditions noted are these: L-DOPA alone 1.25, 2.5, 5.0, 7.5 and 10 mg/kg (with benserazide hydrochloride). The method, then: 10 mg/kg of L-DOPA (containing 2.5 mg/kg of benserazide hydrochloride) was administered to common marmoset that developed chronic parkinsonian symptoms by treatment with MPTP by the method described in Test Example 3 (MPTP-treated marmoset) twice a day at about 6 hr intervals. L-DOPA was repeatedly administered for more than 3 weeks to induction of motor complication (dyskinesia symptom, wearing-off phenomenon, on-off fluctuation and the like) in MPTP-treated marmoset in addition to parkinsonian symptoms, and the marmoset was used for the test. The dyskinesia severity was rating using the rating scale described in a previous report [[…] of Neurology, vol. 43, p. 507 (1998)] as in Test Example 2. […] The subject animal was placed in an observation cage (with locomotor activity measuring apparatus) one day before the test compound administration for preconditioning to the environment. The dyskinesia symptoms were observed through one-way mirror and scored each 20 min for 6 hr. [table] The locomotor activity was automatically measured using a computer by a measuring apparatus with a photocell.

Where [5] appears, read: 1 mg/kg compound combined with L-DOPA 2.5 mg/kg.

In the case of `Cc1ccc(C(=O)Nc2nc(-c3ccco3)c(C(=O)C3CCOCC3)s2)cn1` [Compound (IC)], in data set [1] (setting [5]), the “duration (on-time) of anti-parkinsonian activities of L-DOPA” value was “about 150 min” and the minimum disability score was 3.83±0.17. For the same compound, the “duration of anti-parkinsonian activity of L-DOPA” value in data set [2] (1 mg/kg compound co-administered orally with L-DOPA 2.5, 5.0, 7.5 and 10.0 mg/kg) is listed as “prolonged the anti-parkinsonian activity of L-DOPA”. In data set [2] (1 mg/kg compound co-administered orally with L-DOPA 2.5, 5.0, 7.5 and 10.0 mg/kg, versus L-DOPA alone), the “maximum effects of L-DOPA (minimum motor disability score)” value is “enhanced maximum effects of L-DOPA alone”. Moreover, the “action expression time (on-time)” value in data set [2] (1 mg/kg compound plus 10 mg/kg L-DOPA orally, compared to 10 mg/kg L-DOPA alone) is recorded as “increased”. In addition, the inhibition at 0.1 µM in data set [3] came to 29%.

In the case of `N[C@@H](Cc1ccc(O)c(O)c1)C(=O)O` [L-DOPA], in data set [1] (L-DOPA 2.5 mg/kg alone), the “duration (on-time) of anti-parkinsonian activities of L-DOPA” value is given as “about 50 min” and the minimum disability score was found to be 5.33±0.80. In addition, the parkinsonian symptoms result in data set [1] (L-DOPA alone 2.5 mg/kg or 10 mg/kg (with benserazide hydrochloride)) is given as “decreased with the increasement of dosage”. In data set [4], the dyskinesia entry is reported as “dyskinesia was induced”. For the same compound, the parkinsonian symptoms result in data set [2] (L-DOPA alone 2.5, 5.0, 7.5 and 10.0 mg/kg (with 1/4 amount benserazide hydrochloride)) is on record as “decreased within increasement of the dosage”.

Source of the values: patent US10407440B2, “Therapeutic agent for motor disorders” (KYOWA HAKKO KIRIN CO., LTD., priority 2009, dated 2019).
